According to US11000515B2, “Compounds that interact with the Ras superfamily for the treatment of cancers, inflammatory diseases, rasopathies, and fibrotic disease” (Shy Therapeutics LLC, priority 2017, dated 2021):
Like-named read-outs stand apart in the source and are kept apart here. Each block holds one compound with its values, some of them ahead of it.

Tests used:
[1] = test system: MIA-PACA2 pancreatic cancer cell lines; assay: Cell proliferation assay, MIA-PACA2, alternate assay conditions (DAPI staining, 4 days); assay type: cell-based; details: Homo sapiens; for inhibition at 10 µM: MIA PaCa-2, 96 h, tested at 10 μM (*), 4 days, alternate conditions
Experimental: (§1) Cell lines: Tumor-derived pancreatic cancer cell lines MIA-PACA2 were purchased from ATCC and grown in complete DMEM-High Glucose medium supplemented with penicillin (100 U/mL), streptomycin (100 μg/mL), and 10% heat-inactivated FBS at 37° C. in a humidified incubator with 5% CO2.
Method: Cells are plated at 4000 cells/well density in 96-wells plate. The next day tested small molecules are added to the cells in the final concentration of 10 μM in the presence of 0.3% DMSO and 10% FBS. After small molecules addition, cells are incubated for 4 days at 37° C. in a humidified incubator with 5% CO2. For IC50 value determination, serial dilutions of compounds were added to cells under the same conditions.
Assay: At the end of the incubation period, cell cultures are fixed with a 50-50 mixture (v/v) acetone-methanol for 10 minutes at −20° C., followed by rehydration in PBS for 10 minutes at room temperature. After rehydration, cells are stained with DAPI (1 μg/ml) in PBS for 10 minutes at room temperature, followed by 3 washes with PBS. After staining, DAPI fluorescence is recorded (358 nm excitation/461 nm emission) with the 96-well plate reader Molecular Devices Spectramax M3; degree of small mole-cule-dependent proliferation inhibition is calculated from raw data assuming No Serum cells value as 100%.

[2] = target: KRas G12C/Q61H double mutant (Homo sapiens (Human), UniProt P01116, G12C/Q61H); assay: Ras GTP binding domain inhibition assay (labeled GTP); details: compound at 20 μM
Sequence of KRas G12C/Q61H double mutant (P01116-2 other isoform, or with tags, fused parts or gaps G12C/Q61H): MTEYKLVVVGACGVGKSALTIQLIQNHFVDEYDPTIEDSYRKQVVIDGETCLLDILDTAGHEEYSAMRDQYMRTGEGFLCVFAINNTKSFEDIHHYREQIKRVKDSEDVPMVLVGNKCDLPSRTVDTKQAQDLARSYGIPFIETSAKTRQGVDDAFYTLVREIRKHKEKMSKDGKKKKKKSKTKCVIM
Experimental: (§2) Buffer-I: • 50 mM Tris, pH 7.5 • 150 mM NaCl (optional) • 1 mM MgCl2 • 1 mM DTT. • KRas G12D mutant protein was expressed as a His-tagged protein. Purified His-KRas G12D protein was diluted in buffer-I to a final concentration of 3-10 μg/ml. • 200 μl of the diluted His-KRas G12D protein was added to a nickel coated 96 well plate and incubated overnight at 4° C. • The next day, wells were washed 3× in 200 μl of Buffer-I. • Then 200 μl of Buffer-I were added to each well in the presence of 1% DMSO. • Tested compounds were added to the protein-coated wells at a concentration of 20 μM, and incubated for 3 hours at room temperature. While performing IC50 measurements a serial dilution of all tested concentrations was prepared.
(§3) Then 22 μl of Cy3-GTP or Cy5-GTP was added to each well. The labeled GTP was incubated for 45 min. at room temperature. • Following GTP incubation, wells were washed 3× in Buffer-I, and 200 μl of Buffer-I were added to each well. • Following washes, the amount of bound labeled-GTP was measured with an Eppendorf AF2200 plate reader.
(§4) By substituting KRas G12D mutant protein with KRas G12C mutant, KRas wild type, KRas Q61H mutant, KRas G12D/Q61H double mutant or KRas G12C/Q61H double mutant under the assay conditions described above, KRas G12C mutant KRas wild type, KRas Q61H mutant, KRas G12D/Q61H double mutant and KRas G12C/Q61H double mutant inhibition, respectively, were each determined.

KRas Q61H mutant = KRas Q61H mutant (Homo sapiens (Human), UniProt P01116, Q61H); assay: as above; details: compound at 20 μM
Sequence of KRas Q61H mutant (P01116-2 other isoform, or with tags, fused parts or gaps Q61H): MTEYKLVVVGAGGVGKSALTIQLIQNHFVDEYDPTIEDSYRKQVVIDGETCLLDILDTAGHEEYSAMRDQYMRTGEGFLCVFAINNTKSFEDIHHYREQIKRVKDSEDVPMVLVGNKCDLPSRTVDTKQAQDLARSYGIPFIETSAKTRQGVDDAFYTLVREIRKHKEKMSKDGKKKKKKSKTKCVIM
Experimental: as §2, §3, §4

KRas G12C mutant = KRas G12C mutant (Homo sapiens (Human), UniProt P01116, G12C); assay: as above; details: compound at 20 μM
Sequence of KRas G12C mutant (P01116-2 other isoform, or with tags, fused parts or gaps G12C): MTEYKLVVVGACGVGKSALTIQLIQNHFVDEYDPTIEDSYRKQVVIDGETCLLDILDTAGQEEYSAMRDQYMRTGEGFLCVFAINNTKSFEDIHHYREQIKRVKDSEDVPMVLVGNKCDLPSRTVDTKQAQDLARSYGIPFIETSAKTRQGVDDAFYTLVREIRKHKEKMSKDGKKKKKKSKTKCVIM
Experimental: as §2, §3, §4

[3] = target: KRas G12D/Q61H double mutant (Homo sapiens (Human), UniProt P01116, G12D/Q61H); assay: as above
Sequence of KRas G12D/Q61H double mutant (P01116-2 other isoform, or with tags, fused parts or gaps G12D/Q61H): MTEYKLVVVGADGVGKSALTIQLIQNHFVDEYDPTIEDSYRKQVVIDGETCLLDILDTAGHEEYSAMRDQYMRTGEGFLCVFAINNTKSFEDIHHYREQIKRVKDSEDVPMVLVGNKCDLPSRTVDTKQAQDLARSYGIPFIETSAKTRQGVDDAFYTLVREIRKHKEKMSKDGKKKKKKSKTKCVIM
Experimental: as §2, §3, §4

KRas wild type = KRas wild type (Homo sapiens (Human), UniProt P01116); assay: as above; details: compound at 20 μM
Sequence of KRas wild type (P01116-2 other isoform, or with tags, fused parts or gaps): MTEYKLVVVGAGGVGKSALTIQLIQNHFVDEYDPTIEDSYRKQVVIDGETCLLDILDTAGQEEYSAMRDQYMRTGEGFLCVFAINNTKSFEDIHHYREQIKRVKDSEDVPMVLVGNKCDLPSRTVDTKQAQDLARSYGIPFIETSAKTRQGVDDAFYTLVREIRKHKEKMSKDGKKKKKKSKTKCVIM
Experimental: as §2, §3, §4

KRas G12D mutant protein = KRas G12D mutant protein (Homo sapiens (Human), UniProt P01116, G12D); assay: as above; details: compound at 20 μM
Sequence of KRas G12D mutant protein (P01116-2 other isoform, or with tags, fused parts or gaps G12D): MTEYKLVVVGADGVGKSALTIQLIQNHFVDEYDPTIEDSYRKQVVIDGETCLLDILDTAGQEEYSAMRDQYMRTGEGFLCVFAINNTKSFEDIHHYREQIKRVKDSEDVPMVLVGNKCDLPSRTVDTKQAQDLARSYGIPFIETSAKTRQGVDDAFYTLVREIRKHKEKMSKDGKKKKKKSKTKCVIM
Experimental: The following method was developed as specific assay for KRas G12D mutant protein.
as §2, §3

[4] = test system: MIA-PACA2 pancreatic cancer cell lines; assay: Cell proliferation assay, MIA-PACA2 (CellTiter 96 AQueous One, 6 days); assay type: cell-based; details: Homo sapiens, MIA PaCa-2, 144 h
Experimental: as §1
Method: Cells are plated at 1000 cells/well density in 96-wells plate, starved ON, and the next day tested small molecules are added to the cells in the final concentration of 30 μM with 0.3% DMSO 3 hours prior to 10% FBS addition. After serum addition cells are incubated for 6 days at 37° C. in a humidified incubator with 5% CO2. For IC50 value determination, serial dilutions of compounds were added to cells under the same conditions.
Assay: At the end of the incubation period, cell cultures are tested using the CellTiter 96® AQueous One Solution Cell Proliferation Assay kit (Promega Corporation, Madison, Wis.) according to the manufacturer specifications. Briefly, assay is performed by adding 20 μl of the CellTiter 96 Aqueous One Solution Reagent directly to culture wells, followed by for 1-4 hours incubation at 37° C. in a humidified incubator with 5% CO2. At the end of incubation time, absorbance at 492 nm is recorded with the 96-well plate reader Eppendorf AF2200, and degree of small molecule-dependent proliferation inhibition is calculated from raw data assuming No Serum cells value as 100%.

[5] = test system: MAPK phosphorylation in the PANC-1 pancreatic cancer cell line; assay: MAPK cell-based phosphorylation assay (cell-direct ELISA, EGF-stimulated PANC-1); details: Homo sapiens; for inhibition at 30 µM: PANC-1, 6 hours incubation, EGF stimulation; for inhibition at 10 µM: tested at 10 μM (*), PANC-1
Experimental: Cell lines: Tumor-derived pancreatic cancer cell lines PANC-1 were purchased from ATCC and were maintained according to ATCC recommendation.
Method: Cells were plated at 7500 cells/well density in 96-wells plate, starved over night, and the small molecules to be tested were added to the cells in the final concentration of 30 μM with 0.3% DMSO for 6 hours incubation at 37° C. For IC50 value determination, serial dilutions of compounds were added to cells under the same conditions. Next, cells were stimulated with 1.5 ng/ml EGF for 15 min. followed by cell fixation with 4% Formaldehyde in PBS at RT for 20 min. Phosphorylation level of MAPK was determined by Cell-direct ELISA.
Cell-direct ELISA: For each well, cells were permeabilized with PBS-Triton 0.1%, quenched with H2O2 0.6% in PBS-Triton 0.1%, and probed with anti-phospho-MAPK antibodies (R&D Systems) followed by HRP-conjugated secondary antibody (Jackson Immunoresearch, West Grove, Pa.). Next, a solution 50 μM of the fluorescent substrate AmpliFlu Red (Sigma) was added and incubated at RT for 20 min. At the end of the incubation time, fluorescence was measured at 595 nm on a microplate reader (AF2200; Eppendorf, Inc., Hamburg, Germany).

Rac-1 = Rac-1 (Homo sapiens (Human), UniProt P63000); assay: Rac and Rho inhibition assay (labeled GTP); assay type: binding; details: read-out: Rac-1 % Inh.
Rho-A = Rho-A (Homo sapiens (Human), UniProt P61586); assay: Rac and Rho inhibition assay (labeled GTP); assay type: binding; details: read-out: Rho-A % Inh.
Sequence of Rho-A (P61586 whole entry): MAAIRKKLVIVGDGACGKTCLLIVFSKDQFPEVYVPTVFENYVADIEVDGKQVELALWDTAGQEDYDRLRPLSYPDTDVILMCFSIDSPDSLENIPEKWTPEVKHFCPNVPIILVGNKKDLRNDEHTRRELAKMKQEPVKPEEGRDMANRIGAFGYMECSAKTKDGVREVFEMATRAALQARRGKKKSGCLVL

[6] = compound at 20 μM, read-out: % Inhibition at 20 μM, KRas G12D Q61H

SMILES: Cc1cccc(-c2c(-c3ccccc3)sc3c(O)nc(-c4nccn4C)nc23)c1
- inhibition at 10 µM [1]: 25 to 50%

- inhibition at 20 µM [2]: 51 to 75%
- inhibition at 20 µM (KRas Q61H mutant): 51 to 75%
- inhibition at 20 µM (KRas G12C mutant): 51 to 75%
- inhibition at 20 µM [3, 6]: 51 to 75%
- inhibition at 20 µM (KRas wild type): 51 to 75%
- inhibition at 20 µM (KRas G12D mutant protein): 51 to 75%
SMILES: CN(C)COc1ccc(-c2csc3c(O)nc(-c4ccccn4)nc23)cn1

SMILES: NC(=O)C1CCN(c2nc(-c3ccccn3)nc3scc(-c4ccccc4)c23)CC1
- inhibition at 30 µM [4]: 76 to 100%

SMILES: COOCCCCNC(=O)c1csc2nc(-c3ccccn3)nc(N3CCOCC3)c12
- inhibition at 30 µM [5]: 1 to 25%

- inhibition at 20 µM ([3]; at 20 μM, read-out: KRas Gl2D Q61H % Inh.): 25 to 50%
- inhibition at 20 µM (Rac-1): 51 to 75%
- inhibition at 20 µM (Rho-A): 51 to 75%
SMILES: COC1CN=C(CNC(=O)c2cc3nc(-c4ccccn4)nc(O)c3s2)NC1=O (stereo not shown)

SMILES: O=C(CCn1ccnc1)Nc1nc(-c2ccccn2)nc2sccc12
- inhibition at 30 µM [4]: 76 to 100%

SMILES: COc1ccc(CCC(=O)Nc2nc(-c3ccccn3)nc3sccc23)cn1
- inhibition at 10 µM [5]: 76 to 100%

SMILES: COc1cnc(CN)[nH]c1=O
- inhibition at 30 µM [4]: 51 to 75%

- inhibition at 20 µM [2]: 51 to 75%
- inhibition at 20 µM (KRas Q61H mutant): 51 to 75%
- inhibition at 20 µM (KRas G12C mutant): 25 to 50%
- inhibition at 20 µM [3, 6]: 51 to 75%
- inhibition at 20 µM (KRas wild type): 51 to 75%
- inhibition at 20 µM (KRas G12D mutant protein): 51 to 75%
SMILES: O=C(CCC1N=NN=N1)Nc1nc(-c2ccccn2)nc2sccc12

- inhibition at 20 µM [2]: 25 to 50%
- inhibition at 20 µM (KRas Q61H mutant): 51 to 75%
- inhibition at 20 µM (KRas G12C mutant): 25 to 50%
- inhibition at 20 µM [3, 6]: 25 to 50%
- inhibition at 20 µM (KRas wild type): 1 to 25%
- inhibition at 20 µM (KRas G12D mutant protein): 1 to 25%
SMILES: Oc1nc(-c2ccccn2)nc2ccsc12

- inhibition at 20 µM (Rac-1): 51 to 75%
- inhibition at 20 µM (Rho-A): 76 to 100%
SMILES: COc1ccc(COC[C@H]2O[C@@H](c3csc4c(=O)[nH]c(-c5ccccn5)nc34)[C@H](O)[C@@H]2O)cc1

SMILES: COC(=O)c1cc(NCc2nc(CC(C)C)no2)ccc1Cl
- inhibition at 30 µM [5]: 1 to 25%

SMILES: Cc1nc(-c2ccccn2)nc(O)c1CCC(=O)Nc1ccc(C(C)C)cc1
- inhibition at 30 µM [5]: 1 to 25%

SMILES: COCC(C)Nc1nc(-c2ncccn2)nc2sc(-c3ccncc3)c(-c3ccccc3)c12 (stereo not shown)
- inhibition at 10 µM [1]: 51 to 75%

SMILES: O=C(Nc1nnc(-c2ccccn2)[nH]1)c1ccc(Cc2ccccc2)nc1
- inhibition at 30 µM [4]: 51 to 75%

SMILES: Oc1nc(-c2ccccn2)nc2c(-c3ccccn3)csc12
- inhibition at 10 µM [5]: 76 to 100%

SMILES: N#Cc1ccc(CC(=O)Nc2ccnc(-c3ccccn3)n2)cc1
- inhibition at 30 µM [5]: 1 to 25%

- IC50 ([1]; MIA PaCa-2, same assay as % inhibition: alternate conditions): 501 to 1000 nM
SMILES: COc1ccc(-c2c(-c3ccccc3)sc3c(O)nc(-c4cccn4C)nc23)cn1
- inhibition at 10 µM [1]: 76 to 100%

SMILES: Cn1ccnc1-c1nc(O)c2scc(-c3cccc(OC(F)(F)F)c3)c2n1
- inhibition at 10 µM [5]: 25 to 50%

SMILES: Oc1cccc(-c2csc3c(O)nc(-c4ccccn4)nc23)n1
- inhibition at 10 µM [1]: 76 to 100%

SMILES: OCCn1ncc2c1CCCC2Nc1nc(-c2ccccn2)nc2scc(-c3ccccc3)c12 (stereo not shown)
- inhibition at 30 µM [4]: 76 to 100%

- inhibition at 20 µM (Rac-1): 51 to 75%
- inhibition at 20 µM (Rho-A): 25 to 50%
SMILES: COc1ccnc(-c2nc(O)c3c(C#N)csc3n2)c1

SMILES: CN(CCCc1n[nH]c(N)c1C#N)c1nc(-c2ccccn2)nc2sc(-c3ccccc3)cc12
- inhibition at 30 µM [4]: 76 to 100%
